Results as given in PubChem BioAssay (NCI).
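Briefly, cells in 96-well plates were exposed to five compound concentrations for 48 h, and endpoints were estimated by linear interpolation. TGI denotes the concentration required for complete inhibition of growth.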 Where a SMILES comes first, the peptide text is derived from it. [ ]: non-standard residue; d: D form. The star is where a group is joined. ξ: configuration not given here. ξF = NC(Cc1ccccc1)C(=O)O; Cbz = O=C(OCc1ccccc1)*; Aib = CC(C)(N)C(=O)O

Legend:
Assay in all cases: NCI tumour cell line growth inhibition, 48 h
[1] = test system: PC-3 prostate
[2] = test system: NCI-H226 lung
[3] = test system: LOX IMVI melanoma
[4] = test system: KM12 colon
[5] = test system: UACC-62 melanoma
[6] = test system: UO-31 renal
[7] = test system: K-562 leukemia
[8] = test system: SK-MEL-5 melanoma
[9] = test system: SN12C renal
[10] = test system: MALME-3M melanoma
[11] = test system: HCT-116 colon
[12] = test system: HCT-15 colon
[13] = test system: M14 melanoma
[14] = test system: NCI-H23 lung
[15] = test system: HOP-62 NSCLC
[16] = test system: NCI-H522 lung
[17] = test system: 786-0 renal
[18] = test system: SK-MEL-2 melanoma
[19] = test system: SK-OV-3 ovarian
[20] = test system: A498 renal
[21] = test system: OVCAR-4 ovarian
[22] = test system: HT29 colon
[23] = test system: MCF7 breast
[24] = test system: OVCAR-5 ovarian
[25] = test system: OVCAR-3 ovarian
[26] = test system: SF-295 CNS
[27] = test system: IGROV1 ovarian
[28] = test system: MOLT-4 leukemia
[29] = test system: U251 CNS
[30] = test system: SNB-19 CNS
[31] = test system: MDA-N
[32] = test system: SW-620 colon
[33] = test system: UACC-257 melanoma
[34] = test system: COLO 205 colon
[35] = test system: SF-539 CNS
[36] = test system: T-47D breast
[37] = test system: MDA-MB-435
[38] = test system: NCI/ADR-RES ovarian
[39] = test system: A549 NSCLC
[40] = test system: NCI-H460 lung
[41] = test system: MDA-MB-231 breast
[42] = test system: RPMI-8226 leukemia
[43] = test system: CCRF-CEM leukemia
[44] = test system: CAKI-1 renal
[45] = test system: HOP-92 NSCLC
[46] = test system: OVCAR-8 ovarian
[47] = test system: SK-MEL-28 melanoma
[48] = test system: DU-145 prostate
[49] = test system: SNB-75 CNS
[50] = test system: HS 578T breast
[51] = test system: BT-549 breast
[52] = test system: RXF 393 renal
[53] = test system: HCC-2998 colon
[54] = test system: SF-268 CNS
[55] = test system: EKVX NSCLC
[56] = test system: TK-10 renal
[57] = test system: ACHN renal
[58] = test system: HL-60(TB) leukemia

Measured: TGI

CC(C)(NC(=O)OCc1ccccc1)C(=O)NC(Cc1ccccc1)C(=O)O (stereo not given) (Cbz-[Aib]-[ξF]-OH)
not listed: [52] | [53] | [54] | [55] | [56] | [57] | [58]
> 100 µM: all other assays above

Cc1cn(C2CC(n3cc(Cn4cc(F)c(=O)[nH]c4=O)nn3)C(CO)O2)c(=O)[nH]c1=O (stereo not given)
not listed: [7] | [16] | [22] | [40]
> 100 µM: all other assays above
